Measurements as given in PubChem BioAssay AID1845197 (Molecular Pharmacology Branch, DTP, NCI, 2023).
Several values for one entry are separate records, joined by “and”; a condition that tells them apart may be missing. Equal entries are not always repeated.

Test system: 349418-098-R tumor spheroid viability
Assay: Anticancer human tumor 349418-098-R patient-derived lung adenocarcinoma cell line growth inhibition
Details: spheroids with HUVEC and MSC; for viability, T/C: stronger effect = lower value
Method in brief: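 Single agents and combinations were tested on spheroids built from tumor cells plus HUVEC and hMSC, at half-log dilutions starting at or near clinical Cmax, else 10 microM; final DMSO 0.25% (v/v).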
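Note: spheroids exposed to compound for 7 days before measurement.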
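Throughout, for viability, T/C: percent of vehicle control viability with 100% = DMSO-treated spheroids.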

## [2H]c1nc(C)nc([2H])c1-c1cc(NC[C@@H](C)c2cccc3c(C(=O)NC)ccnc23)ncn1
Compound 0.0316 µM
  viability, T/C: 109% and 102% and 93.6%
Compound 0.1 µM
  viability, T/C: 109% and 103% and 105%
Compound 0.316 µM
  viability, T/C: 106% and 101% and 113%
Compound 1 µM
  viability, T/C: 105% (2×) and 107%
Compound 3.16 µM
  viability, T/C: 114% and 103% (2×)
Compound 10 µM
  viability, T/C: 112% and 102% and 105%
Curve of compound
  IC50: > 10 µM

## CC(C)n1c(=O)n(C)c2cnc3cc(F)c(-c4ccc(OCCCN5CCCCC5)nc4)cc3c21 + CC[C@@]1(O)C(=O)OCc2c1cc1n(c2=O)Cc2cc3c(CN(C)C)c(O)ccc3nc2-1
Curve of first compound, second compound 0.003 µM
  IC50: > 10 µM
Curve of first compound, second compound 0.00949 µM
  IC50: 4.93 µM
Curve of first compound, second compound 0.03 µM
  IC50: < 0.0316 µM
Curve of first compound, second compound 0.0949 µM
  IC50: < 0.0316 µM
Curve of first compound, second compound 0.3 µM
  IC50: < 0.0316 µM
Second compound 0.003 µM, first compound 0.0316 µM
  viability, T/C: 96.9%
Second compound 0.003 µM, first compound 0.1 µM
  viability, T/C: 93.2%
Second compound 0.003 µM, first compound 0.316 µM
  viability, T/C: 93.8%
Second compound 0.003 µM, first compound 1 µM
  viability, T/C: 99.6%
Second compound 0.003 µM, first compound 3.16 µM
  viability, T/C: 100%
Second compound 0.003 µM, first compound 10 µM
  viability, T/C: 63.9%
Second compound 0.00949 µM, first compound 0.0316 µM
  viability, T/C: 67.6%
Second compound 0.00949 µM, first compound 0.1 µM
  viability, T/C: 69.3%
Second compound 0.00949 µM, first compound 0.316 µM
  viability, T/C: 66.2%
Second compound 0.00949 µM, first compound 1 µM
  viability, T/C: 67.7%
Second compound 0.00949 µM, first compound 3.16 µM
  viability, T/C: 63.4%
Second compound 0.00949 µM, first compound 10 µM
  viability, T/C: 28.7%
Second compound 0.03 µM, first compound 0.0316 µM
  viability, T/C: 24.3%
Second compound 0.03 µM, first compound 0.1 µM
  viability, T/C: 22%
Second compound 0.03 µM, first compound 0.316 µM
  viability, T/C: 22.2%
Second compound 0.03 µM, first compound 1 µM
  viability, T/C: 22.7%
Second compound 0.03 µM, first compound 3.16 µM
  viability, T/C: 27.8%
Second compound 0.03 µM, first compound 10 µM
  viability, T/C: 17%
Second compound 0.0949 µM, first compound 0.0316 µM
  viability, T/C: 7.03%
Second compound 0.0949 µM, first compound 0.1 µM
  viability, T/C: 9.49%
Second compound 0.0949 µM, first compound 0.316 µM
  viability, T/C: 9.54%
Second compound 0.0949 µM, first compound 1 µM
  viability, T/C: 9.81%
Second compound 0.0949 µM, first compound 3.16 µM
  viability, T/C: 11.7%
Second compound 0.0949 µM, first compound 10 µM
  viability, T/C: 12.4%
Second compound 0.3 µM, first compound 0.0316 µM
  viability, T/C: 5.01%
Second compound 0.3 µM, first compound 0.1 µM
  viability, T/C: 4.88%
Second compound 0.3 µM, first compound 0.316 µM
  viability, T/C: 5.74%
Second compound 0.3 µM, first compound 1 µM
  viability, T/C: 6.26%
Second compound 0.3 µM, first compound 3.16 µM
  viability, T/C: 8.16%
Second compound 0.3 µM, first compound 10 µM
  viability, T/C: 8.82%

## [2H]c1nc(C)nc([2H])c1-c1cc(NC[C@@H](C)c2cccc3c(C(=O)NC)ccnc23)ncn1 + Cn1nnc2c(C(N)=O)ncn2c1=O
Curve of first compound, second compound 1 µM
  IC50: > 10 µM
Curve of first compound, second compound 3.16 µM
  IC50: > 10 µM
Curve of first compound, second compound 10 µM
  IC50: > 10 µM
Curve of first compound, second compound 31.6 µM
  IC50: > 10 µM
Curve of first compound, second compound 100 µM
  IC50: > 10 µM
Second compound 1 µM, first compound 0.0316 µM
  viability, T/C: 98.9%
Second compound 1 µM, first compound 0.1 µM
  viability, T/C: 103%
Second compound 1 µM, first compound 0.316 µM
  viability, T/C: 98.7%
Second compound 1 µM, first compound 1 µM
  viability, T/C: 97.9%
Second compound 1 µM, first compound 3.16 µM
  viability, T/C: 102%
Second compound 1 µM, first compound 10 µM
  viability, T/C: 97.3%
Second compound 3.16 µM, first compound 0.0316 µM
  viability, T/C: 109%
Second compound 3.16 µM, first compound 0.1 µM
  viability, T/C: 105%
Second compound 3.16 µM, first compound 0.316 µM
  viability, T/C: 104%
Second compound 3.16 µM, first compound 1 µM
  viability, T/C: 98.3%
Second compound 3.16 µM, first compound 3.16 µM
  viability, T/C: 104%
Second compound 3.16 µM, first compound 10 µM
  viability, T/C: 103%
Second compound 10 µM, first compound 0.0316 µM
  viability, T/C: 104%
Second compound 10 µM, first compound 0.1 µM
  viability, T/C: 96.6%
Second compound 10 µM, first compound 0.316 µM
  viability, T/C: 102%
Second compound 10 µM, first compound 1 µM
  viability, T/C: 106%
Second compound 10 µM, first compound 3.16 µM
  viability, T/C: 101%
Second compound 10 µM, first compound 10 µM
  viability, T/C: 104%
Second compound 31.6 µM, first compound 0.0316 µM
  viability, T/C: 97.8%
Second compound 31.6 µM, first compound 0.1 µM
  viability, T/C: 110%
Second compound 31.6 µM, first compound 0.316 µM
  viability, T/C: 101%
Second compound 31.6 µM, first compound 1 µM
  viability, T/C: 104%
Second compound 31.6 µM, first compound 3.16 µM
  viability, T/C: 103%
Second compound 31.6 µM, first compound 10 µM
  viability, T/C: 104%
Second compound 100 µM, first compound 0.0316 µM
  viability, T/C: 106%
Second compound 100 µM, first compound 0.1 µM
  viability, T/C: 109%
Second compound 100 µM, first compound 0.316 µM
  viability, T/C: 106%
Second compound 100 µM, first compound 1 µM
  viability, T/C: 106%
Second compound 100 µM, first compound 3.16 µM
  viability, T/C: 108%
Second compound 100 µM, first compound 10 µM
  viability, T/C: 110%
